Among the data in patent publication US10829478B2, “5-[3-[piperazin-1-yl]-3-oxo-propyl]-imidazolidine-2,4-dione derivatives as ADAMTS 4 and 5 inhibitors for treating e.g. osteoarthritis” (Galapagos NV, priority 2016, dated 2020) are IC50 values, retold here.

Like-named read-outs stand apart in the source and are kept apart here.

The IC50 is the concentration that inhibits the measured activity by half.

The target of one experiment is human MMP14 (Homo sapiens (Human), UniProt P50281). In words: hMMP14 assay (390 MMP FRET Substrate I). The format is biochemical. As to conditions: human MMP14 (Biomol), read-out: hMMP-14 potency IC50.
The next experiment deals with human ADAMTS4 (Homo sapiens (Human), UniProt O75173). The experiment in a line: hADAMTS-4 TBIS-1 cleavage assay, Protocol 2. The format is biochemical.
human ADAMTS4, sequence (O75173 213-837): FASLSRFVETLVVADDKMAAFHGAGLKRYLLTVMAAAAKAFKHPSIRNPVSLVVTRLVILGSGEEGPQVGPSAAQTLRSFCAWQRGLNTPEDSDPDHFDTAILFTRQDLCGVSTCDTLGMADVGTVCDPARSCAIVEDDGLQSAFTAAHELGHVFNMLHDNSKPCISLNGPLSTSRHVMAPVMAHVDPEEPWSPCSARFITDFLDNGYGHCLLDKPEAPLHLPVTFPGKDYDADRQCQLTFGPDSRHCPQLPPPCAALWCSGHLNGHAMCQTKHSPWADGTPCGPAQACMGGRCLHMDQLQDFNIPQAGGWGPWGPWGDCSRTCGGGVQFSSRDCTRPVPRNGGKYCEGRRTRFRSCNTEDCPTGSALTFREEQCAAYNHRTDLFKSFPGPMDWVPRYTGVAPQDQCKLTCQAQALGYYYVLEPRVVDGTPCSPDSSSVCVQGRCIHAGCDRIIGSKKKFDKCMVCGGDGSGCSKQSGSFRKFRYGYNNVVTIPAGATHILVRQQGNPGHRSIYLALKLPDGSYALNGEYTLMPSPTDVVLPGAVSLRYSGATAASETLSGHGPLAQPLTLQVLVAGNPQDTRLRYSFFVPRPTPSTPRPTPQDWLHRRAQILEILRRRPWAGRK
The target of another experiment is human ADAMTS6 (Homo sapiens (Human), UniProt Q9UKP5). The experiment in a line: hADAMTS-6 fluorescent based protease assay (520 MMP FRET substrate XII). It is filed as biochemical. As to conditions: 37° C. for 2 h; read-out: hADAMTS-6 potency IC50. The procedure, abridged:
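ADAMTS6 (0.73 nM final) in 25 mM Tris pH 8.0, 0.05% CHAPS, 2.5 mM CaCl2 with compound dilution series (top 20 μM, 1/5 steps). Reaction started with 520 MMP FRET Substrate XII, incubated 2 h at 37 °C. Substrate cleavage read by fluorescence ex485/em530; IC50 determined.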

Another experiment has as its target human TACE (Homo sapiens (Human), UniProt P78536). In words: biochemical.
The target of a further experiment is rnADAMTS-5 (1-564-6H) (Rattus norvegicus (Rat), UniProt Q6TY19). The experiment in a line: Rat ADAMTS-5 TBIS-1 cleavage assay. It is filed as biochemical. Particulars: 120 min at 37° C.; read-out: Rat ADAMTS-5 potency IC50.
rnADAMTS-5 (1-564-6H), sequence (Q6TY19 entry or part of it): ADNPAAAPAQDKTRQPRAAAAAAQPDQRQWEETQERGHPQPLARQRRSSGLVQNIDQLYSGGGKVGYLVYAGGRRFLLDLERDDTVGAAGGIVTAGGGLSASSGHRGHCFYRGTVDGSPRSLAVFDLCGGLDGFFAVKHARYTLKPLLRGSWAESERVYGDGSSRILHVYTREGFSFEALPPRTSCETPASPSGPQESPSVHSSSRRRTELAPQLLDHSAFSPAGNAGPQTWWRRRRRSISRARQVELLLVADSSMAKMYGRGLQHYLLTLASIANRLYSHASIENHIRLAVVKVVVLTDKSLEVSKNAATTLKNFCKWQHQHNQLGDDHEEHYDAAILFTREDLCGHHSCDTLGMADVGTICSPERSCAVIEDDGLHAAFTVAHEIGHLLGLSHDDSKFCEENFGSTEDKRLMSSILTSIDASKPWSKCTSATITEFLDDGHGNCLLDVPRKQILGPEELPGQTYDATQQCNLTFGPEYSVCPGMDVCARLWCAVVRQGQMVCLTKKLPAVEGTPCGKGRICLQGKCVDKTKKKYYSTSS
In the next experiment the target is human MMP13 (Homo sapiens (Human), UniProt P45452). In words: hMMP13 assay, Protocol 1 (390 MMP FRET Substrate I, Chemicon enzyme). As to conditions: Protocol 1, human MMP13 (Chemicon), read-out: hMMP-13 potency IC50. The format is biochemical. As for the experimental part:
Human MMP13 is preactivated by incubated the enzyme in the same buffer complemented with 1 mM freshly prepared p-Aminophenylmercuric acetate (AMPA) for 1 h at 37° C.

The next experiment concerns the target human ADAMTS-5 (Homo sapiens (Human), UniProt Q9UNA0). The experiment in a line: hADAMTS-5 TBIS-1 cleavage assay, Protocol 3. It is filed as biochemical. Particulars: 90 min at 37° C., read-out: hADAMTS-5 potency IC50.
[1] abbreviates: Protocol 2, 180 min at 37° C., read-out: ADAMTS4 potency IC50.

human ADAMTS-5, sequence (Q9UNA0 262-930): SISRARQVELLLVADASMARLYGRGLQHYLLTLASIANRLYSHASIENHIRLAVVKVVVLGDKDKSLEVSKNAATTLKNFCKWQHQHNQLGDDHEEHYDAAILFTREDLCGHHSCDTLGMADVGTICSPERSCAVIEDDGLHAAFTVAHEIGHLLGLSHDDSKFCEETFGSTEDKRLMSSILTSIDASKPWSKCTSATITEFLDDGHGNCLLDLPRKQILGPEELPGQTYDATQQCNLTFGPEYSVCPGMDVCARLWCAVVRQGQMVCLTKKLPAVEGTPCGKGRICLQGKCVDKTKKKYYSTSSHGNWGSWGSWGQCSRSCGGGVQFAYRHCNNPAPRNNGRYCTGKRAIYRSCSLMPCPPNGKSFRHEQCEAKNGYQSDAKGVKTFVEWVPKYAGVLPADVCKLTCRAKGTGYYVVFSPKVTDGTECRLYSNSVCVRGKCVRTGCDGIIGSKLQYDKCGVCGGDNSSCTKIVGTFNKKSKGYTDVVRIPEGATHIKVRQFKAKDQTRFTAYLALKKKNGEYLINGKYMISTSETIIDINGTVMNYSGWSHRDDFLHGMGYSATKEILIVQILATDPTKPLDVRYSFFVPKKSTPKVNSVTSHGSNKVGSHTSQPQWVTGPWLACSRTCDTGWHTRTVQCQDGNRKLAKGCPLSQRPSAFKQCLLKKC
human TACE, sequence (P78536 215-671): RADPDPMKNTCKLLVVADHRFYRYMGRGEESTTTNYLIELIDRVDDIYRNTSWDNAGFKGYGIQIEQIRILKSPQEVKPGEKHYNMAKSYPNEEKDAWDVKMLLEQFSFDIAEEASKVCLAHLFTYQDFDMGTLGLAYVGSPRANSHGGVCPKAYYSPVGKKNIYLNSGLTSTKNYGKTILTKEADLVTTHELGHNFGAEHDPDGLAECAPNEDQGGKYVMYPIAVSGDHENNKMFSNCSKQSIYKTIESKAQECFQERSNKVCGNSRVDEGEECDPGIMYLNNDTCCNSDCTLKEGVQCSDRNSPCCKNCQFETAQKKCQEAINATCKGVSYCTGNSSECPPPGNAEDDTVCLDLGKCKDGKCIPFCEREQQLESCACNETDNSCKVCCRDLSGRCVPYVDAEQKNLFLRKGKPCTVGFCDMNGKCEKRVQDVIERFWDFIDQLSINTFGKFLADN
human ADAMTS6, sequence (Q9UKP5 other isoform, or with tags, fused parts or gaps): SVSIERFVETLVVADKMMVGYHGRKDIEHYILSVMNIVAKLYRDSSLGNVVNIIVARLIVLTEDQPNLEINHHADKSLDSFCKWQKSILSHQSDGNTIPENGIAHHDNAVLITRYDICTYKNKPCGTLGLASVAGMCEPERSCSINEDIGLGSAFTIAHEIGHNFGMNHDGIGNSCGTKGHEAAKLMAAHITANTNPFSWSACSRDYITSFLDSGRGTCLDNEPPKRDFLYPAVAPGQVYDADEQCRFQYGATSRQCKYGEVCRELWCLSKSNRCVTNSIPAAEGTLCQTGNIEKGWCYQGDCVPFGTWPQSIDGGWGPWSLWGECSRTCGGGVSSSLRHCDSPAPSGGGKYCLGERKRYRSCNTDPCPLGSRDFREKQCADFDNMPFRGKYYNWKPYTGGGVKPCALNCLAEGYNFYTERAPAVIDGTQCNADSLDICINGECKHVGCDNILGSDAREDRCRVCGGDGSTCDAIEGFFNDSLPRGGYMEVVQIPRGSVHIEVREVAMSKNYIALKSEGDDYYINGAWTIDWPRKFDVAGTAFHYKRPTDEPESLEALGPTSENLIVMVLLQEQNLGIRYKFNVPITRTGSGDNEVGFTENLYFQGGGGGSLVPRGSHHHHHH
Method for human ADAMTS-5: The reaction is initiated by adding to the assay plate TBIS-1 (10 μL, 4.5 μM, Anaspec) in the same buffer.
Finally, the fluorescence is read on the Envision (Perkin Elmer) after an incubation of 90 min at 37° C. (Excitation 485 nm, emission 530).
Method for human MMP14: The basis for the assay is the cleavage of the substrate 390 MMP FRET Substrate I (Anaspec Cat #AS-27076) by human MMP14 (Biomol, Cat #SE-259).
The reaction is initiated by adding to the assay plate 390 MMP FRET Substrate I (10 μL, 2.5 μM) in the same buffer.
Finally, the fluorescence is read on the Envision (Perkin Elmer) after an incubation of 60 min at room temperature (Excitation 485 nm, Emission 530).
Method for human TACE: Finally, the fluorescence is read on the Envision (Perkin Elmer) after an incubation of 75 min at room temperature (Excitation 485 nm, Emission 530).

As to `COc1cc(N2CCN(C(=O)[C@@H](C)C[C@@]3(C)NC(=O)NC3=O)C[C@@H]2C)cc(F)c1F` (mixture of isomers) [Cpd 42, 5-[3-[(3S)-4-(3,4-difluoro-5-methoxy-phenyl)-3-methyl-piperazin-1-yl]-2-methyl-3-oxo-propyl]-5-methyl-imidazolidine-2,4-dione], the IC50 at human MMP14 is > 100 nM; at human ADAMTS4, 25 to 50 nM; on human ADAMTS6, 0.001 to 25 nM; against human TACE it was > 100 nM; on rnADAMTS-5 (1-564-6H), 0.001 to 25 nM; on human MMP13, > 100 nM. In addition, the IC50 on human ADAMTS-5 was 0.001 to 25 nM.
Take `COc1cc(N2CCN(C(=O)[C@@H](C)C[C@@]3(C)NC(=O)NC3=O)C[C@@H]2C)ccc1Cl` (stereo in doubt) [Cpd 41, 5-[3-[4-(4-chloro-3-methoxy-phenyl)-3-methyl-piperazin-1-yl]-2-methyl-3-oxo-propyl]-5-methyl-imidazolidine-2,4-dione]: the IC50 at human MMP14 was > 100 nM; at human ADAMTS4 (setting [1]) it was > 100 nM; on human ADAMTS6, 0.001 to 25 nM; against human TACE it was > 100 nM; on rnADAMTS-5 (1-564-6H), 0.001 to 25 nM; at human MMP13, > 100 nM. Further, the IC50 at human ADAMTS-5 was 25 to 50 nM.
`COc1cc(N2CCN(C(=O)[C@@H](C)C[C@@]3(C)NC(=O)NC3=O)CC2)cc(F)c1F` (stereo in doubt) [Cpd 43, 5-[3-[4-(3,4-difluoro-5-methoxy-phenyl)piperazin-1-yl]-2-methyl-3-oxo-propyl]-5-methyl-imidazolidine-2,4-dione]: the IC50 at human MMP14 is > 100 nM; at human ADAMTS4, 25 to 50 nM; at human ADAMTS6, 0.001 to 25 nM; on human TACE it was > 100 nM; on rnADAMTS-5 (1-564-6H), 0.001 to 25 nM; on human MMP13, > 100 nM. Further, the half-inhibitory concentration (IC50) at human ADAMTS-5 was 0.001 to 25 nM.
Turning to `COc1cc(N2CCN(C(=O)CCC3(C)NC(=O)NC3=O)C[C@@H]2C)ccc1Cl` (stereo partly drawn) [Cpd 24, 5-[3-[(3S)-4-(4-chloro-3-methoxy-phenyl)-3-methyl-piperazin-1-yl]-3-oxo-propyl]-5-methyl-imidazolidine-2,4-dione], the IC50 at human MMP14 was > 100 nM; on human ADAMTS4 (setting [1]) it was > 100 nM; on human ADAMTS6, 0.001 to 25 nM; at human TACE, > 100 nM; on rnADAMTS-5 (1-564-6H), 50 to 100 nM; at human MMP13, > 100 nM. For the same molecule, on human ADAMTS-5, the IC50 lay in the range of 25 to 50 nM.
`COc1cc(N2CCN(C(=O)CCC3(C)NC(=O)NC3=O)CC2)c(C)cc1Cl` (centres unmarked) [Cpd 34, 5-[3-[4-(4-chloro-5-methoxy-2-methyl-phenyl)piperazin-1-yl]-3-oxo-propyl]-5-methyl-imidazolidine-2,4-dione]: the IC50 is > 100 nM on human ADAMTS4 (setting [1]); 25 to 50 nM on human ADAMTS6; > 100 nM against human TACE; > 100 nM on rnADAMTS-5 (1-564-6H); > 100 nM on human MMP13; > 100 nM at human ADAMTS-5.
For the molecule `COc1cc(N2CCN(C(=O)CCC3(C)NC(=O)NC3=O)C[C@@H]2C)c(C)cc1Cl` (some centres unmarked) [Cpd 36, 5-[3-[(3 S)-4-(4-chloro-5-methoxy-2-methyl-phenyl)-3-methyl-piperazin-1-yl]-3-oxo-propyl]-5-methyl-imidazolidine-2,4-dione], the concentration for half-maximal inhibition (IC50) on human ADAMTS4 (setting [1]) was > 100 nM; at human ADAMTS6, 25 to 50 nM; against human TACE, > 100 nM; on rnADAMTS-5 (1-564-6H), > 100 nM; at human MMP13, > 100 nM; on human ADAMTS-5 it was > 100 nM.
As for `COc1cc(N2CCN(C(=O)CC[C@@]3(C4CC4)NC(=O)NC3=O)C[C@@H]2C)cc(F)c1F` [Cpd 37, (5S)-5-cyclopropyl-5-[3-[(3 S)-4-(3,4-difluoro-5-methoxy-phenyl)-3-methyl-piperazin-1-yl]-3-oxo-propyl]imidazolidine-2,4-dione], the IC50 was > 100 nM on human MMP14; 25 to 50 nM at human ADAMTS4; 0.001 to 25 nM on human ADAMTS6; > 100 nM at human TACE; 0.001 to 25 nM on rnADAMTS-5 (1-564-6H); > 100 nM on human MMP13. Besides, the IC50 on human ADAMTS-5 lay in the range of 0.001 to 25 nM.
For the molecule `COc1cc(N2CCN(C(=O)CCC3(C)NC(=O)NC3=O)CC2)cc(F)c1Cl` (centres unmarked) [Cpd 38, 5-[3-[4-(4-chloro-3-fluoro-5-methoxy-phenyl)piperazin-1-yl]-3-oxo-propyl]-5-methyl-imidazolidine-2,4-dione], the 50% inhibitory concentration (IC50) at human ADAMTS4 (setting [1]) was > 100 nM; on human ADAMTS6 it was 0.001 to 25 nM; against human TACE it was > 100 nM; at rnADAMTS-5 (1-564-6H), 50 to 100 nM; on human MMP13, > 100 nM; on human ADAMTS-5, > 100 nM.
`COc1cc(N2CCN(C(=O)CCC3(C)NC(=O)NC3=O)C[C@@H]2C)cc(F)c1Cl` (stereo partly drawn) [Cpd 39, 5-[3-[(3S)-4-(4-chloro-3-fluoro-5-methoxy-phenyl)-3-methyl-piperazin-1-yl]-3-oxo-propyl]-5-methyl-imidazolidine-2,4-dione]: the IC50 at human ADAMTS4 (setting [1]) is > 100 nM; at human ADAMTS6, 0.001 to 25 nM; at human TACE it was > 100 nM; at rnADAMTS-5 (1-564-6H), 50 to 100 nM; at human MMP13 it was > 100 nM; at human ADAMTS-5, 50 to 100 nM.
As for `COc1cc(N2CCN(C(=O)CC[C@H]3NC(=O)NC3=O)C[C@@H]2C)cc(F)c1F` [Cpd 129, (5R)-5-[3-[(3S)-4-(3,4-difluoro-5-methoxy-phenyl)-3-methyl-piperazin-1-yl]-3-oxo-propyl]imidazolidine-2,4-dione], the IC50 is > 100 nM at human ADAMTS4 (setting [1]); 0.001 to 25 nM on human ADAMTS6; > 100 nM at human TACE; > 100 nM at rnADAMTS-5 (1-564-6H); > 100 nM at human MMP13; > 100 nM on human ADAMTS-5.
With `COc1cc(OC)cc(N2CCN(C(=O)CC[C@H]3NC(=O)NC3=O)C[C@@H]2C)c1` [Cpd 132, (5R)-5-[3-[(3 S)-4-(3,5-dimethoxyphenyl)-3-methyl-piperazin-1-yl]-3-oxo-propyl]imidazolidine-2,4-dione], the concentration for half-maximal inhibition (IC50) at human ADAMTS4 (setting [1]) was > 100 nM; at human ADAMTS6 it was 25 to 50 nM; against human TACE, > 100 nM; at rnADAMTS-5 (1-564-6H), > 100 nM; on human MMP13, > 100 nM; on human ADAMTS-5, > 100 nM.
As for `COc1cc(N2CCN(C(=O)CC[C@H]3NC(=O)NC3=O)C[C@@H]2C)ccc1Cl` [Cpd 133, (5R)-5-[3-[(3 S)-4-(4-chloro-3-methoxy-phenyl)-3-methyl-piperazin-1-yl]-3-oxo-propyl]imidazolidine-2,4-dione], the IC50 on human ADAMTS4 (setting [1]) is > 100 nM; at human ADAMTS6, 0.001 to 25 nM; at human TACE, > 100 nM; at rnADAMTS-5 (1-564-6H), > 100 nM; at human MMP13, > 100 nM; on human ADAMTS-5, > 100 nM.
With `COc1cc(N2CCN(C(=O)CC[C@H]3NC(=O)NC3=O)CC2)cc(OC)c1Cl` [Cpd 135, (5R)-5-[3-[4-(4-chloro-3,5-dimethoxy-phenyl)piperazin-1-yl]-3-oxo-propyl]imidazolidine-2,4-dione], the IC50 on human ADAMTS4 (setting [1]) was > 100 nM; at human ADAMTS6, 0.001 to 25 nM; at human TACE it was > 100 nM; on rnADAMTS-5 (1-564-6H) it was > 100 nM; on human MMP13, > 100 nM; at human ADAMTS-5, > 100 nM.
In the case of `COc1cc(N2CCN(C(=O)CC[C@H]3NC(=O)NC3=O)CC2)c(C)cc1Cl` [Cpd 138, (5R)-5-[3-[4-(4-chloro-5-methoxy-2-methyl-phenyl)piperazin-1-yl]-3-oxo-propyl]imidazolidine-2,4-dione], the IC50 at human ADAMTS4 (setting [1]), on human ADAMTS6, at human TACE, at rnADAMTS-5 (1-564-6H), at human MMP13 and on human ADAMTS-5 was > 100 nM each time.
Take `COc1cc(N2CCN(C(=O)CC[C@H]3NC(=O)NC3=O)C[C@@H]2C)cc(OC)c1Cl` [Cpd 139, (5R)-5-[3-[(3 S)-4-(4-chloro-3,5-dimethoxy-phenyl)-3-methyl-piperazin-1-yl]-3-oxo-propyl]imidazolidine-2,4-dione]: the IC50 on human ADAMTS4 (setting [1]) was > 100 nM; on human ADAMTS6 it was 0.001 to 25 nM; against human TACE, > 100 nM; at rnADAMTS-5 (1-564-6H) it was 50 to 100 nM; on human MMP13, > 100 nM; on human ADAMTS-5 it was > 100 nM.
As for `COc1cc(N2CCN(C(=O)CC[C@H]3NC(=O)NC3=O)C[C@@H]2C)c(C)cc1Cl` [Cpd 142, (5R)-5-[3-[(3S)-4-(4-chloro-5-methoxy-2-methyl-phenyl)-3-methyl-piperazin-1-yl]-3-oxo-propyl]imidazolidine-2,4-dione], the IC50 on human ADAMTS4 (setting [1]) is > 100 nM; at human ADAMTS6, 50 to 100 nM; against human TACE, > 100 nM; at rnADAMTS-5 (1-564-6H) it was > 100 nM; at human MMP13 it was > 100 nM; on human ADAMTS-5 it was > 100 nM.
In the case of `COc1cc(N2CCN(C(=O)CC[C@H]3NC(=O)NC3=O)C[C@@H]2C)cc(F)c1Cl` [Cpd 144, (5R)-5-[3-[(3 S)-4-(4-chloro-3-fluoro-5-methoxy-phenyl)-3-methyl-piperazin-1-yl]-3-oxo-propyl]imidazolidine-2,4-dione], the IC50 is > 100 nM on human ADAMTS4 (setting [1]); 0.001 to 25 nM on human ADAMTS6; > 100 nM against human TACE; 50 to 100 nM on rnADAMTS-5 (1-564-6H); > 100 nM at human MMP13; 50 to 100 nM on human ADAMTS-5.
